In PMC11054303, “Design and Synthesis of Novel N-Benzylidene Derivatives of 3-Amino-4-imino-3,5-dihydro-4H-chromeno[2,3-d]pyrimidine under Microwave, In Silico ADME Predictions, In Vitro Antitumoral Activities and In Vivo Toxicity” (Pharmaceuticals, 2024):

How the values were obtained:
T47D breast cancer cells = test system: T47D breast cancer cells; parameters: method as in PMID 15542776; conditions: cited from earlier work
MCF7 = assay: Antiproliferative assay, MCF7; format: cell-based, human; conditions: for IC50: Homo sapiens, MCF7, 48 h incubation, average of three assays, standard error ± 0.5 μM; for Selectivity Index (SI) MCF7: SI = IC50 fibroblasts/IC50 on MCF7
Experimental: (§1) The potential antiproliferative activity of these novel 3-(N-phenylmethyliden)amino-4-imino-3,5-dihydro-4H-chromeno[2,3-d]pyrimidine 10(a-i) and 10-(N-phenylmethyliden)amino-11-imino-11H-naphto[1′,2′:5,6]pyrano[2,3-d]pyrimidine 10(j-l) was evaluated in a panel of eight tumoral cell lines and in diploid skin fibroblasts used as normal cell lines for control. For these antitumor assays, chosen cell lines represent diverse types of human cancer, which are, respectively, human hepatocellular carcinoma (Huh7 D12), human colon adenocarcinoma (Caco2), human breast adenocarcinoma (MDA-MB231), MDA-MB468 for human breast carcinoma which correspond to the Triple Negative Breast Cancer (TNBC), human colon carcinoma (HCT116), PC3 as cell line initiated from bone metastasis of grade IV prostatic adenocarcinoma from a person, MCF7 as breast cancer line isolated from a person and PANC1, as human pancreatic cancer cell line. The potential antiproliferative activity was preliminarily evaluated in vitro at a 25 μM single dose.
(§2) The IC50 was calculated from the full dose-response curve and used as a parameter for the antiproliferative activity of the new compounds.
(§3) Skin diploid fibroblastic cells were provided by BIOPREDIC International Company (Rennes, France). Huh-7D12 (Ref ECACC: 01042712), Caco2 (Ref ECACC: 86010202), MDA-MB-231 (Ref ECACC: 92020424), MDA-MB-468, HCT-116 (Ref ECACC: 91091005), PC3 (Ref ECACC: 90112714), and MCF7 cell lines were obtained from the ECACC collection. PANC1 cell lines, a generous gift of LBAI Inserm 1227 (Brest, France). Cells were grown according to ECACC recommendations in DMEM for Huh-D12, MDA-MB-231, MDA-MB-468 and fibroblast, in EMEM for Caco2, in McCoy’s for HCT-116 and RPMI for PC3 at 37 °C and 5% CO2. All culture media with 10% of FBS, 1% of penicillin-streptomycin and 2 mM glutamine.
(§4) Chemicals were solubilized in DMSO at a concentration of 10 mM (stock solution) and diluted in a culture medium to the desired final concentrations. […] The toxicity test of the chemicals on these cells was as follows: 2 × 10^3 cells for HCT-116 cells or 4 × 10^3 for the other cells were seeded in 96-multi-well plates in triplicate and left for 24 h for attachment, spreading and growing. Then, cells were exposed for 48 h to increasing concentrations of chemicals, ranging from 0.1 μM to 25 μM, in a final volume of 120 μL of culture medium. After 48 h of treatment, cells were washed in PBS and fixed in a cooled 90% ethanol/5% acetic acid solution for 20 min. The nuclei were stained with Hoechst 3342 (B2261 Merck Sigma-Aldrich) and counted. Image acquisition and analysis were performed using automated imaging analysis with a Cellomics Arrayscan VTI/HCS Reader (Thermo/Scientific, Waltham, MA, USA). The survival percentages were calculated as the percentage of cell number after chemical treatment over cell number after DMSO treatment. The IC50 was graphically determined.

MDA MB231 = assay: Antiproliferative assay, MDA MB231; format: cell-based, human; conditions: for IC50: Homo sapiens, MDA-MB-231, 48 h incubation, average of three assays, standard error ± 0.5 μM; for Selectivity Index (SI) MDA MB231: SI = IC50 fibroblasts/IC50 on MDA MB231
Experimental: as §1, §2, §3, §4

PANC1 = assay: Antiproliferative assay, PANC1; format: cell-based, human; conditions: for IC50: Homo sapiens, PANC-1, 48 h incubation, average of three assays, standard error ± 0.5 μM; for Selectivity Index (SI) PANC1: SI = IC50 fibroblasts/IC50 on PANC1
Experimental: as §1, §2, §3, §4

PC3 = assay: Antiproliferative assay, PC3; format: cell-based, human; conditions: for IC50: Homo sapiens, PC-3, 48 h incubation, average of three assays, standard error ± 0.5 μM; for Selectivity Index (SI) PC3: SI = IC50 fibroblasts/IC50 on PC3
Experimental: as §1, §2, §3, §4

Huh7 D12 = assay: Antiproliferative assay, Huh7 D12; format: cell-based, human; conditions: for IC50: Homo sapiens, Huh-7D12, 48 h incubation, average of three assays, standard error ± 0.5 μM; for Selectivity Index (SI) Huh7 D12: SI = IC50 fibroblasts/IC50 on Huh7 D12
Experimental: as §1, §2, §3, §4

MDA MB468 = assay: Antiproliferative assay, MDA MB468; format: cell-based, human; conditions: for IC50: Homo sapiens, MDA-MB-468, 48 h incubation, average of three assays, standard error ± 0.5 μM; for Selectivity Index (SI) MDA MB468: SI = IC50 fibroblasts/IC50 on MDA MB468
Experimental: as §1, §2, §3, §4

HCT 116 = assay: Antiproliferative assay, HCT 116; format: cell-based, human; conditions: for IC50: Homo sapiens, HCT-116, 48 h incubation, average of three assays, standard error ± 0.5 μM; for Selectivity Index (SI) HCT 116: SI = IC50 fibroblasts/IC50 on HCT 116
Experimental: as §1, §2, §3, §4

[1] = Antiproliferative assay, Caco2; format: cell-based, human; conditions: human, Caco-2; SI = IC50 fibroblasts/IC50 on Caco2; read-out: Selectivity Index (SI) Caco2
Experimental: as §1, §2, §3, §4

Caco2 = assay: Antiproliferative assay, Caco2; format: cell-based, human; conditions: Homo sapiens, Caco-2; 48 h incubation; average of three assays, standard error ± 0.5 μM
Experimental: as §1, §2, §3, §4

Fibroblasts = assay: Antiproliferative assay, diploid skin fibroblasts (normal cells); format: cell-based; conditions: for IC50: Fibroblast, 48 h incubation, average of three assays, standard error ± 0.5 μM
Experimental: as §1, §2, §3, §4

tumor cell lines = assay: Antiproliferative assay, panel of tumoral cell lines; format: cell-based; conditions: Homo sapiens, 48 h, summary over tumoral cell lines of Table 3, 48 h; read-out: IC50 on tumor cell lines (span over the panel)
Experimental: as §1, §2, §3, §4

[2] = test system: zebrafish Danio rerio embryos; assay: Angiogenesis of vessels in mCherry transgenic zebrafish embryos; format: in vivo; conditions: 1.67 μM, 72 hpf
Source text: Another interest of zebrafish Danio rerio is the possibility to deeply evaluate the effects of angiogenic compounds. In our model, the formation of most vessels is complete, the circulation is present, and the heart is beating after 28 hpf of development. Angiogenesis begins in the somites and in the anterior portion of the embryos. Many zebrafish blood vessels form by angiogenic sprouting and appear to require the same proteins required for blood vessel growth in mammals. By using the mCherry line transgenic zebrafish, it is possible to analyze the direct effect of a compound on the angiogenesis of dorsal vessels. Zebrafish embryos can survive up to a week without an intact circulatory system because defective vessel formation has no immediate lethal effect.
These experiments were performed in four technical replicates.

[3] = test system: zebrafish Danio rerio embryos; conditions: transgenic line Tg(kdrl:Hsa.HRAS-mCherry)s896, zebrafish (Danio rerio), in vivo, 72 hpf, 1.67 μM
Experimental: (§5) Fertilized eggs at 24–48 h post-fertilization (hpf) were selected and transferred to a 96-well plate (1 embryo/well). […] DMSO (0.6%) was used as vehicle control for the test compounds. The exposure duration continued up to 72 hpf because it is the endpoint of embryonic development [41]. The dead embryos were eliminated, and the fertilized eggs were imaged at 0, 24, 48 and 72 hpf.
(§6) Eggs were collected 2 h post-fertilization (hpf) and kept in glass Petri dishes containing water for subsequent examination under a binocular microscope to confirm fertilization. […] Chemical treatments were performed by adding DMSO alone (negative control), or test molecule. These experiments were performed in four technical replicates.
(§7) The experiments were performed using a Zeiss inverted fluorescent microscope (Observer Z1). The zebrafish toxicological test (Zebratox) was realized as follows: the 24 h post-fertilization embryos were arrayed by hand with one embryo per well in black-walled 96-well microplates for fluorescence assays (Perkin Elmer, Waltham, MA, USA). The embryos were treated before hatching from 0 to 72 h post-fertilization. The 20 mM DMSO stock chemicals were diluted in fish water and added to the wells at final concentrations from 0.0 2µM to 5 μM. The negative control (0.25% DMSO) was added to each replicate plate. The experiments were realized in triplicate in three independent plates. […] The zebrafish fertilized eggs were provided by the ImPACcell-Biosit Zebrafish facilities (Rennes, France).

[4] = test system: zebrafish Danio rerio embryos; assay: Zebrafish embryo toxicity assay (Zebratox, FET); conditions: low doses
Experimental: as §5, §6, §7

2-amino-4-(3-bromo-4,5-dimethoxyphenyl)-4H-chromene-3-carbonitrile [MX 58151]
GI50 (T47D breast cancer cells): 0.037 µM

N=c1c2c(ncn1/N=C/c1ccccc1O)Oc1ccccc1C2 [10e, (3E) 3-N-(2-Hydroxyphenylmethylidene)amino-4-imino-3,5-dihydro-4H-chromeno[2,3-d]pyrimidine]
IC50 (MCF7): 1.7 µM | Selectivity Index (SI) MCF7 (MCF7): 0.94 | IC50 (MDA MB231): 1.5 µM | Selectivity Index (SI) MDA MB231 (MDA MB231): 1.07 | IC50 (PANC1): 2.2 µM | Selectivity Index (SI) PANC1 (PANC1): 0.73 | IC50 (PC3): 0.15 µM | Selectivity Index (SI) PC3 (PC3): 10.67 | IC50 (Huh7 D12): 1.7 µM | Selectivity Index (SI) Huh7 D12 (Huh7 D12): 0.94 | IC50 (MDA MB468): 2.5 µM | Selectivity Index (SI) MDA MB468 (MDA MB468): 0.64 | IC50 (HCT 116): 0.3 µM | Selectivity Index (SI) HCT 116 (HCT 116): 5.33 | selectivity ratio at 48 h [1]: 0.8 | IC50 (Caco2): 2 µM | effect on fibroblasts (healthy skin cell), in words (Fibroblasts): cytotoxic on fibroblasts | IC50 (Fibroblasts): 1.6 µM | IC50 (tumor cell lines): 1 to 25 µM

N=c1c2c(ncn1/N=C/c1ccccc1)Oc1ccccc1C2 [10f, (3E) 3-N-(Phenylmethylidene)amino-4-imino-3,5-dihydro-4H-chromeno[2,3-d]pyrimidine]
IC50 (MCF7): > 25 µM | IC50 (MDA MB231): > 25 µM | IC50 (PANC1): > 25 µM | IC50 (PC3): > 25 µM | IC50 (Huh7 D12): > 25 µM | IC50 (MDA MB468): > 25 µM | IC50 (HCT 116): 10 µM | Selectivity Index (SI) HCT 116 (HCT 116): > 2.5 | IC50 (Caco2): > 25 µM | IC50 (Fibroblasts): > 25 µM | IC50 (tumor cell lines): > 25 µM | melting point: 232 to 234 °C

COc1cccc2c1Oc1ncn(/N=C/c3ccccc3)c(=N)c1C2 [10i, (3E) 3-N-(Phenylmethylidene)amino-4-imino-9-methoxy-3,5-dihydro-4H-chromeno[2,3-d]pyrimidine]
IC50 (MCF7): 0.45 µM | Selectivity Index (SI) MCF7 (MCF7): > 55.6 | IC50 (MDA MB231): 0.6 µM | Selectivity Index (SI) MDA MB231 (MDA MB231): > 41.7 | IC50 (PC3): 0.77 µM | Selectivity Index (SI) PC3 (PC3): > 32.5 | IC50 (Huh7 D12): 0.49 µM | Selectivity Index (SI) Huh7 D12 (Huh7 D12): > 51.0 | IC50 (MDA MB468): 0.3 µM | Selectivity Index (SI) MDA MB468 (MDA MB468): > 83.3 | IC50 (HCT 116): 0.62 µM | Selectivity Index (SI) HCT 116 (HCT 116): > 40.3 | selectivity ratio at 48 h [1]: > 31.3 | IC50 (Caco2): 0.8 µM | IC50 (Fibroblasts): > 25 µM | melting point: 252 to 254 °C

N=c1c2c(ncn1/N=C/c1ccccc1O)Oc1ccc3ccccc3c1C2 [10k, (10E) 10-N-(2-Hydroxyphenylmethylidene)amino-11-imino-11H-naphto[1′,2′:5,6]pyrano[2,3-d]pyrimidine]
IC50 (MCF7): 1.2 µM | Selectivity Index (SI) MCF7 (MCF7): 1.25 | IC50 (MDA MB231): 1.1 µM | Selectivity Index (SI) MDA MB231 (MDA MB231): 1.34 | IC50 (PANC1): 1.6 µM | Selectivity Index (SI) PANC1 (PANC1): 0.94 | IC50 (PC3): 0.4 µM | Selectivity Index (SI) PC3 (PC3): 3.75 | IC50 (Huh7 D12): 1.5 µM | Selectivity Index (SI) Huh7 D12 (Huh7 D12): 1 | IC50 (MDA MB468): 1.8 µM | Selectivity Index (SI) MDA MB468 (MDA MB468): 0.83 | IC50 (HCT 116): 0.6 µM | Selectivity Index (SI) HCT 116 (HCT 116): 2.5 | selectivity ratio at 48 h [1]: 1.25 | IC50 (Caco2): 1.2 µM | effect on fibroblasts (healthy skin cell), in words (Fibroblasts): cytotoxic on fibroblasts | IC50 (Fibroblasts): 1.5 µM | IC50 (tumor cell lines): 1 to 25 µM

N=c1c2c(ncn1/N=C/c1ccccc1)Oc1ccc3ccccc3c1C2 [10l, (10E) 10-N-(Phenylmethylidene)amino-11-imino-11H-naphto[1′,2′:5,6]pyrano[2,3-d]pyrimidine]
IC50 (MCF7): > 25 µM | IC50 (MDA MB231): > 25 µM | IC50 (PC3): > 25 µM | IC50 (Huh7 D12): > 25 µM | IC50 (MDA MB468): > 25 µM | IC50 (HCT 116): > 25 µM | IC50 (Caco2): > 25 µM | IC50 (Fibroblasts): > 25 µM | IC50 (tumor cell lines): > 25 µM | melting point: ≥ 260 °C

CNC(=O)c1cc(Oc2ccc(NC(=O)Nc3ccc(Cl)c(C(F)(F)F)c3)cc2)ccn1 [sorafenib, reference compound]
effect on angiogenesis of the vessels [2]: absence of angiogenesis of the vessels | effect on angiogenesis of the vessels ([2]; listed as Sorafenib): inhibition of the dorsal vessel vascularization | toxicity, fraction of the embryos [3]: 4/5 | development of the embryos ([4]; 24 hpf): normal development | morphological development of the embryos ([4]; 48 hpf): morphological development is delayed
